The target of the test is Angiotensin-converting enzyme (Homo sapiens, UniProt P12821). Kind of test: Concentration required for 50% inhibition of Angiotensin I converting enzyme. The test is classed as protein assay, Cavia porcellus.
Angiotensin-converting enzyme, sequence (P12821 whole entry): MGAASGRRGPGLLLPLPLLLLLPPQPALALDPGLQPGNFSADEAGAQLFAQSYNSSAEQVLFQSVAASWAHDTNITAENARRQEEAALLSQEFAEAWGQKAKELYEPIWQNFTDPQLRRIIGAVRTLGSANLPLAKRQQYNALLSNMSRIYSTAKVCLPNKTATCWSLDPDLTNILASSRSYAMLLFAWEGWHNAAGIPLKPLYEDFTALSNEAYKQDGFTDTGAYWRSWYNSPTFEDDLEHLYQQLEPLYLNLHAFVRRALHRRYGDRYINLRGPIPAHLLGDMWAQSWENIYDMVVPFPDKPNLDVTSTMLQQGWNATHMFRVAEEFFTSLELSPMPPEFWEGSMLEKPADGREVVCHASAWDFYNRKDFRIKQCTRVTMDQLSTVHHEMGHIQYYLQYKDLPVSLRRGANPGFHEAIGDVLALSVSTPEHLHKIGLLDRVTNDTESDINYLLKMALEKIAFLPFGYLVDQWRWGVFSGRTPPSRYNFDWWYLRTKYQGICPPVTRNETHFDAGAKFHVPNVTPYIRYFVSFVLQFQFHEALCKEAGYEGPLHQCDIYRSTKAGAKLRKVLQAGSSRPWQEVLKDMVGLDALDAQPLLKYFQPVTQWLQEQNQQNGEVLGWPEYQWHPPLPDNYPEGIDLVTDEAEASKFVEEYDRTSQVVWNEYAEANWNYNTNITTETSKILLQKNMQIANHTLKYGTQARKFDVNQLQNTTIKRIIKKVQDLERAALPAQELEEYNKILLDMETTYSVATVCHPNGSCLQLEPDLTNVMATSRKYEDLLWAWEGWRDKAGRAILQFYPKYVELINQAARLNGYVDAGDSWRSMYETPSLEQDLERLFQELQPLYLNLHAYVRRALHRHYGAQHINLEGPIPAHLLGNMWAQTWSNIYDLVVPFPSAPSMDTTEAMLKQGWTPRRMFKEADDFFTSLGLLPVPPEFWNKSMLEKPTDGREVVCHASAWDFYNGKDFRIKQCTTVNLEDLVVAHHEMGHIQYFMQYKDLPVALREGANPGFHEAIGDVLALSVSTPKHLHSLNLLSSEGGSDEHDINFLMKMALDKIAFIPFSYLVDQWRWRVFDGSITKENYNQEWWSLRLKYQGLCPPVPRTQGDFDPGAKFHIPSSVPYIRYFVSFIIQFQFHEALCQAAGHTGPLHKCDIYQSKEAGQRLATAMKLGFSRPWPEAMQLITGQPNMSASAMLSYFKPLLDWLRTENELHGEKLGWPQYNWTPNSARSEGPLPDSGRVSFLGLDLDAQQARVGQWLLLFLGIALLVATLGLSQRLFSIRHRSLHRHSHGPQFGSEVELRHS

Regarding `CC(=O)SCC1CCCN(CC(N)=O)C1=O` (stereo unspecified), the IC50 result is “Not Active”.

(Values after ChEMBL document CHEMBL1121705, “Synthesis and angiotensin-converting enzyme inhibitory activity of 3-(Mercaptomethyl)-2-oxo-1-pyrrolidineacetic acids and 3-(Mercaptomethyl)-2-oxo-1-piperidineacetic acids” (J Med Chem, 1981).)
